As usually defined, the IC50 is the concentration needed to halve the response being measured. High values mean weaker potency in that assay, low ones greater potency in that assay.

Drawing on BindingDB's records for doi:10.1021/cb500512z (University of Wisconsin-Milwaukee, 2014), this text covers IC50 for one compound.

The target in the experiment is Genome polyprotein (Hepacivirus C, UniProt A3EZJ3). Put plainly: EMSA. The note with it: pH 7.5; 23 °C. How it is done: Binding assays containing 25 mM MOPS pH 7.5, 1.25 mM MgCl2, 20 nM Cy5-dT15, and 200 nM NS3h_1b were incubated 5 min at RT. Following addition of indicated concentrations of ebselen, the binding reactions were incubated another 5 min at 23 C.
A general note: A gel shift assay detects complexes by their altered migration in electrophoresis.

Genome polyprotein, sequence (A3EZJ3 whole entry): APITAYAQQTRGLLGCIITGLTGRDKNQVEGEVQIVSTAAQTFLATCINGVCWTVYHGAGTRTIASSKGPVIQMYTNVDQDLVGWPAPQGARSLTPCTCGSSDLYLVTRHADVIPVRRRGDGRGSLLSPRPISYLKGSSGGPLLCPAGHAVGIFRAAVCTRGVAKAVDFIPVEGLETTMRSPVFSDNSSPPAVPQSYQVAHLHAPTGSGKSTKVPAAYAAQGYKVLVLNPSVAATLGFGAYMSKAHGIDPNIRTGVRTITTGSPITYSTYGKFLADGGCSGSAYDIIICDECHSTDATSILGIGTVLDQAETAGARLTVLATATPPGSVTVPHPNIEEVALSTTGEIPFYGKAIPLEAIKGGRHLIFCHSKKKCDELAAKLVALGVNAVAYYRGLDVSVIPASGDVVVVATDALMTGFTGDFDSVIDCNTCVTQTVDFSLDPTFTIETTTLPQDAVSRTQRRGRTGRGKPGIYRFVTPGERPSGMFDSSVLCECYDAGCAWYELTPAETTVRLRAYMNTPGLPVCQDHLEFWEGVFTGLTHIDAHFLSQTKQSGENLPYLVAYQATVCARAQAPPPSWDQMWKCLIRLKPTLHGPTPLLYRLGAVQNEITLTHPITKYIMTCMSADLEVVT

`Cc1ccccc1NC(=O)Cn1sc2ccccc2c1=O` registered an IC50 of 3.9 µM.
